Assay results taken from patent US20250084080A1, “CRYSTALLINE AND SALT FORMS OF AN NLRP3 INHIBITOR” (BioAge Labs, Inc., priority 2023, published 2025).

Assays:
Assay type in all cases: physicochemical
[1] = Bulk stability (solid state, 1 week; HPLC, XRPD, IC, color); design: key to CL (color): A: no change of color; B: slight discoloration; C: medium discoloration; D: strong discoloration; conditions: for Bulk (HPLC) Purity / Bulk (XRPD) / CL (color) / Stoichiometry by IC (Free form:HCl = 1:x): Solid state
Procedure: Bulk stability of free form Pattern B was evaluated at 25° C./92.5% RH in an open container, at 40° C./75% RH in an open container and at 60° C. in a tight container over 1 week.

[2] = Solubility at 37° C. in buffers and biorelevant media, XRPD of residual solid; conditions: for solubility at 2 h / solubility at 24 h: thermodynamic from solid
Procedure: Solubility of BAL-0748 free form Pattern B was investigated in pH 1.2 HCl buffer, pH 4.5 50 mM acetate buffer, pH 6.8 50 mM phosphate buffer, water, pH 1.6 FaSSGF, pH 6.5 FaSSIF-v1, pH 5.0 FeSSIF-v1 and 2% HPMC+1% Pluronic F68 in pH 4.5 50 mM acetate buffer at 37° C. for 2 h and 24 h. Residual solids after the solubility test were analyzed by XRPD.
Solubility of the free form Pattern A, the HCl salt Pattern A, the phosphate salt Pattern A, and the sodium salt Pattern A was measured in pH 1.2 HCl buffer, pH 4.5 acetate buffer (50 mM), pH 6.8 phosphate buffer (50 mM), water, pH 1.6 FaSSGF, pH 6.5 FaSSIF-v1, pH 5.0 FeSSIF-v1, and 2% HPMC+1% Pluronic F68 in pH 4.5 acetate buffer (50 mM) at 37° C. for 2 hours and 24 hours.
10.4 mg of the free form Pattern A, 10.0 mg of the free form Pattern B, 10.8 mg of the HCl salt Pattern A, 12.2 mg of the phosphate salt Pattern A, or 10.5 mg of the sodium salt Pattern A was weighed into a 20 mL glass vial, respectively. 5 mL of solubility medium was added. The salt amount used was equivalent to 10 mg anhydrous free form. Obtained suspensions were stirred at 37° C. at 400 rpm and sampled at 2 hours and at 24 hours. The samples were centrifuged at 37° C. at 14,000 rpm for 5 min. Supernatants were analyzed by HPLC and PH meter for solubility and pH value, respectively. Residual solids (wet cakes) from the 24 hours samples were also characterized by XRPD to determine physical form.

[3] = Hygroscopicity by dynamic vapor sorption (DVS) at 25° C.; conditions: for Desorp. (%) / Sorp. (%): DVS 25° C.
Procedure: Dynamic vapor sorption (DVS) was performed on an Intrinsic, Advantage or Adventure with an oven temperature of 25° C. using water as a solvent. The sample mass was about 5-10 mg using the following method: • Cycle: 40-0-95-0-40% RH • Stage Step: 10% • Equilibrium: 0.002 dm/dt (%/min) • Minimum dm/dt stability duration: 60 min • Maximum dm/dt stage time: 360 min. Hygroscopicity of free form Pattern B was evaluated by dynamic vapor sorption (DVS) test at 25° C. […] It absorbed about 0.8% water at 80% RH at 25° C.

[4] = 25° C./92.5% RH open, 40° C./75% RH open, 60° C. tight container
[5] = aqueous buffer, pH 4.5 acetate buffer (50 mM), 37° C.
[6] = aqueous buffer, pH 6.8 phosphate buffer (50 mM), 37° C.
[7] = aqueous with cosolvent or surfactant or cyclodextrin, 2% HPMC + 1% Pluronic F68 in pH 4.5 acetate buffer (50 mM), 37° C.
[8] = fassgf or other biorelevant, FaSSGF, pH 1.6, 37° C.
[9] = simulated gastric fluid, pH 1.2 HCl buffer, 37° C.

SMILES: CCOc1cc(C(=O)N(C)Cc2cnc(CO)c3cn[nH]c23)ccc1-c1cc(F)cc(F)c1.Cl [HCl salt Pattern A, 2-ethoxy-3′,5′-difluoro-N-((4-(hydroxymethyl)-1H-pyrazolo[4,3-c]pyridin-7-yl)methyl)-N-methyl-[1,1′-biphenyl]-4-carboxamide hydrochloric acid salt]
- Bulk stability, chemical and physical [1, 4]: chemically and physically stable
- Degradation by HPLC [1, 4]: no obvious degradation
- Form change by XRPD [1, 4]: no form change
- Bulk (HPLC) Purity ([1]; 25° C./92.5% RH, open): 99.1%
- Bulk (XRPD) ([1]; 25° C./92.5% RH, open): No form change
- CL (color) ([1]; 25° C./92.5% RH, open): A
- Stoichiometry by IC (Free form:HCl = 1:x) ([1]; 25° C./92.5% RH, open): 0.97
- Bulk (HPLC) Purity ([1]; 40° C./75% RH, open): 98.9%
- Bulk (XRPD) ([1]; 40° C./75% RH, open): No form change
- CL (color) ([1]; 40° C./75% RH, open): A
- Stoichiometry by IC (Free form:HCl = 1:x) ([1]; 40° C./75% RH, open): 0.99
- Bulk (HPLC) Purity ([1]; 60° C., closed): 98.9%
- Bulk (XRPD) ([1]; 60° C., closed): No form change
- CL (color) ([1]; 60° C., closed): A
- Stoichiometry by IC (Free form:HCl = 1:x) ([1]; 60° C., closed): 0.97
- pH of supernatant at 24 h ([2]; 2% HPMC + 1% Pluronic F68 in pH 4.5 acetate buffer (50 mM), 37° C.): (4.4)
- Solubility compared with the free form Pattern A ([2]; 2% HPMC+1% Pluronic F68 in acetate buffer (pH 4.5)): comparable solubility
- pH of supernatant at 24 h ([2]; FaSSGF, pH 1.6, 37° C.): (1.5)
- pH of supernatant at 24 h ([2]; FaSSIF-v1, pH 6.5, 37° C.): (6.3)
- pH of supernatant at 24 h ([2]; FeSSIF-v1, pH 5.0, 37° C.): (4.9)
- pH of supernatant at 24 h ([2]; Water, 37° C.): (2.5)
- solubility at 2 h [2, 5]: 14.4 µg/mL
- solubility at 24 h [2, 5]: 10 µg/mL
- solubility at 2 h [2, 6]: 3.3 µg/mL
- solubility at 24 h [2, 6]: 2.3 µg/mL
- solubility at 2 h [2, 7]: 29.5 µg/mL
- solubility at 24 h [2, 7]: 26.7 µg/mL
- solubility at 2 h [2, 8]: 556 µg/mL
- solubility at 24 h [2, 8]: 522 µg/mL
- pH of supernatant at 24 h ([2]; pH 1.2 HCl buffer, 37° C.): (1.2)
- pH of supernatant at 24 h ([2]; pH 4.5 acetate buffer (50 mM), 37° C.): (4.3)
- Higher solubility compared with the free form Pattern A ([2]; pH 5.0 FeSSIF-v1, 2 h): 1 fold
- pH of supernatant at 24 h ([2]; pH 6.8 phosphate buffer (50 mM), 37° C.): (6.7)
- Solubility compared with the free form Pattern A ([2]; pure water): obviously higher solubility
- solubility at 2 h [2, 9]: 362 µg/mL
- solubility at 24 h [2, 9]: 277 µg/mL
- solubility at 2 h ([2]; FaSSIF-v1, pH 6.5, 37° C.): 11.8 µg/mL
- solubility at 24 h ([2]; FaSSIF-v1, pH 6.5, 37° C.): 8.4 µg/mL
- solubility at 2 h ([2]; FeSSIF-v1, pH 5.0, 37° C.): 238 µg/mL
- solubility at 24 h ([2]; FeSSIF-v1, pH 5.0, 37° C.): 151 µg/mL
- solubility at 2 h ([2]; Water, 37° C.): 568 µg/mL
- solubility at 24 h ([2]; Water, 37° C.): 504 µg/mL
- Desorp. (%) ([3]; 0% RH, 1st desorption): 0.51%
- Sorp. (%) ([3]; 0% RH, 1st sorption): 0.51%
- Desorp. (%) ([3]; 0% RH, 2nd desorption): 0.15%
- Sorp. (%) ([3]; 0% RH, 2nd sorption): 0.15%
- Desorp. (%) ([3]; 10% RH, 1st desorption): 0.61%
- Sorp. (%) ([3]; 10% RH, 1st sorption): 0.61%
- Desorp. (%) ([3]; 10% RH, 2nd desorption): 0.24%
- Sorp. (%) ([3]; 10% RH, 2nd sorption): 0.20%
- Desorp. (%) ([3]; 20% RH, 1st desorption): 0.65%
- Sorp. (%) ([3]; 20% RH, 1st sorption): 0.68%
- Desorp. (%) ([3]; 20% RH, 2nd desorption): 0.28%
- Sorp. (%) ([3]; 20% RH, 2nd sorption): 0.24%
- Desorp. (%) ([3]; 30% RH, 1st desorption): 0.69%
- Sorp. (%) ([3]; 30% RH, 1st sorption): 0.78%
- Desorp. (%) ([3]; 30% RH, 2nd desorption): 0.35%
- Sorp. (%) ([3]; 30% RH, 2nd sorption): 0.27%
- Desorp. (%) ([3]; 40% RH, 1st desorption): 0.72%
- Sorp. (%) ([3]; 40% RH, 1st sorption): 0.75%
- Desorp. (%) ([3]; 40% RH, 2nd desorption): 0.42%
- Sorp. (%) ([3]; 40% RH, 2nd sorption): 0.29%
- Sorp. (%) ([3]; 50% RH, 1st sorption): 0.80%
- Desorp. (%) ([3]; 50% RH, 2nd desorption): 0.54%
- Sorp. (%) ([3]; 60% RH, 1st sorption): 0.85%
- Desorp. (%) ([3]; 60% RH, 2nd desorption): 0.68%
- Sorp. (%) ([3]; 70% RH, 1st sorption): 0.96%
- Desorp. (%) ([3]; 70% RH, 2nd desorption): 0.84%
- Sorp. (%) ([3]; 80% RH, 1st sorption): 1.00%
- Desorp. (%) ([3]; 80% RH, 2nd desorption): 1.07%
- Sorp. (%) ([3]; 90% RH, 1st sorption): 1.37%
- Desorp. (%) ([3]; 90% RH, 2nd desorption): 1.54%
- Sorp. (%) ([3]; 95% RH, 1st sorption): 2.20%
- Desorp. (%) ([3]; 95% RH, 2nd desorption): 2.20%
- XRPD after DVS test ([3]; DVS at 25° C.): No form change
- Water absorbed at 80% RH ([3]; DVS at 25° C., 80% RH): It absorbed 1.0%
